Columns and labels:
[1] = Biological distribution in bodies of normal mice; format: in vivo, mice (ICR); conditions: caudal vein injection
From the text: Through in-vivo distribution experiments, pharmacokinetic features, especially initial bran intake and brain removal situations of ^18F or ^125I labeled compounds in the bodies of mice are studied. […] Data are expressed in radioactive percentage dosage per organ (% ID/organ) and radioactive percentage dosage per gram of organ (% ID/g).

[2] = logD of labeled ligands; format: physicochemical

| Blood ([1]; 2 min) [% ID/g] | Brain ([1]; 2 min) [% ID/g] | Thyroid ([1]; 2 min) [% ID/organ] | Blood ([1]; 10 min) [% ID/g] | Brain ([1]; 10 min) [% ID/g] | Thyroid ([1]; 10 min) [% ID/organ] | Blood ([1]; 30 min) [% ID/g] | Brain ([1]; 30 min) [% ID/g] | Thyroid ([1]; 30 min) [% ID/organ] | Blood ([1]; 60 min) [% ID/g] | Brain ([1]; 60 min) [% ID/g] | Thyroid ([1]; 60 min) [% ID/organ] | logD [2] | Bone ([1]; 2 min) [% ID/organ] | Bone ([1]; 10 min) [% ID/organ] | Bone ([1]; 30 min) [% ID/organ] | Bone ([1]; 60 min) [% ID/organ] | Structure (SMILES) |
| --- | --- | --- | --- | --- | --- | --- | --- | --- | --- | --- | --- | --- | --- | --- | --- | --- | --- |
| 4.96 ± 0.35 | 5.27 ± 0.98 | 0.13 ± 0.02 | 3.88 ± 0.79 | 2.28 ± 0.27 | 0.13 ± 0.01 | 3.89 ± 0.53 | 0.81 ± 0.06 | 0.19 ± 0.04 | 3.01 ± 1.07 | 0.37 ± 0.06 | 0.34 ± 0.10 | [^125I]35a (logD = 2.50 ± 0.23) | – | – | – | – | FCCOc1ccc(COc2ccc([125I])cc2)cc1 [[^125I]35a] |
| 4.01 ± 0.28 | 4.91 ± 0.60 | 0.11 ± 0.03 | 2.46 ± 0.30 | 3.26 ± 0.24 | 0.12 ± 0.03 | 2.53 ± 0.27 | 1.34 ± 0.12 | 0.16 ± 0.04 | 1.34 ± 0.26 | 0.49 ± 0.07 | 0.27 ± 0.04 | [^125I]22 (logD = 2.89 ± 0.09) | – | – | – | – | CN(C)c1ccc(OCc2ccc([125I])cc2)cc1 [[^125I]22] |
| 4.26 ± 0.41 | 9.95 ± 2.36 | – | 4.61 ± 0.95 | 2.77 ± 0.19 | – | 3.76 ± 0.19 | 1.44 ± 0.18 | – | 3.05 ± 1.09 | 1.30 ± 0.16 | – | [^18F] 53a (logD = 3.65 ± 0.04) | 2.37 ± 0.69 | 2.76 ± 0.47 | 4.02 ± 0.78 | 5.89 ± 0.49 | COc1ccc(COc2ccc(OCC[18F])cc2)cc1 [[^18F] 53a] |

Source: US20170037008A1, “PHENYL BENZYL ETHER DERIVATIVE AND PREPARATION METHOD AND APPLICATION THEREOF” (BEIJING ZHIBO BIO-MEDICAL TECHNOLOGY CO., LTD, priority 2013, published 2017)
